Measurements taken from ChEMBL document CHEMBL5291721, “A preclinical secondary pharmacology resource illuminates target-adverse drug reaction associations of marketed drugs” (Nat Commun, 2023).
One block for each molecule: values may come before it.

Key:
[1] = molecular target: T1, Muscarinic acetylcholine receptor M2 (Homo sapiens, UniProt P08172)
T1 sequence (P08172 whole entry): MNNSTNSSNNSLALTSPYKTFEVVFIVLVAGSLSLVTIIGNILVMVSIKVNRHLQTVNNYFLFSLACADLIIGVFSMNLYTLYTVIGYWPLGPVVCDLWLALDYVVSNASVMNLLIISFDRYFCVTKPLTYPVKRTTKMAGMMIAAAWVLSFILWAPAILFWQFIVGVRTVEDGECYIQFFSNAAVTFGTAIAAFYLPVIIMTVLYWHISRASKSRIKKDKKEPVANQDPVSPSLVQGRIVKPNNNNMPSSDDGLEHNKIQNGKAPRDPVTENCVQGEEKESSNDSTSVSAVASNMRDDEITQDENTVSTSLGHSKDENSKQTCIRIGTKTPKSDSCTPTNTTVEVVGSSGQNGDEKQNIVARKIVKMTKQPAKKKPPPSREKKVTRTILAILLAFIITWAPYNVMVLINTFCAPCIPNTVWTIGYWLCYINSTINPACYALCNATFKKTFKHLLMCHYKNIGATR

[2] = molecular target: T2, Bile acid receptor (Homo sapiens, UniProt Q96RI1); assay type: functional
T2 sequence (Q96RI1 whole entry): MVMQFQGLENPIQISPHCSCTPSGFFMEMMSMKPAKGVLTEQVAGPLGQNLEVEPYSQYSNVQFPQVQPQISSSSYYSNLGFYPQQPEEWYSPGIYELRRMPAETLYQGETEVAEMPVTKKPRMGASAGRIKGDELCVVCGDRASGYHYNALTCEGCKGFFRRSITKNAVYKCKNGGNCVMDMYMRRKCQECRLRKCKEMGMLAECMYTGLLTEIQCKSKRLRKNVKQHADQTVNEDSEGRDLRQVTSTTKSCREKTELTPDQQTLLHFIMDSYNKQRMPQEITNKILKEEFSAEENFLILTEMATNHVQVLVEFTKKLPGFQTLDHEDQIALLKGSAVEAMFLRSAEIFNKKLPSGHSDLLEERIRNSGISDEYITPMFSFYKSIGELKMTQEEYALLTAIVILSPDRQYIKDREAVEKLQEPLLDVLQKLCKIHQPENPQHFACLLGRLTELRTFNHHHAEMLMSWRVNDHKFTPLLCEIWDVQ

[3] = molecular target: T2, Bile acid receptor; assay type: functional; remark: listed apart in the source
[4] = molecular target: T2, Bile acid receptor; assay type: functional; remark: listed apart in the source
[5] = molecular target: T2, Bile acid receptor; assay type: functional; remark: listed apart in the source
[6] = molecular target: 5-hydroxytryptamine receptor 2B (Homo sapiens, UniProt P41595)
Further: assay procedure not described here.

Sequence of 5-hydroxytryptamine receptor 2B (P41595 whole entry): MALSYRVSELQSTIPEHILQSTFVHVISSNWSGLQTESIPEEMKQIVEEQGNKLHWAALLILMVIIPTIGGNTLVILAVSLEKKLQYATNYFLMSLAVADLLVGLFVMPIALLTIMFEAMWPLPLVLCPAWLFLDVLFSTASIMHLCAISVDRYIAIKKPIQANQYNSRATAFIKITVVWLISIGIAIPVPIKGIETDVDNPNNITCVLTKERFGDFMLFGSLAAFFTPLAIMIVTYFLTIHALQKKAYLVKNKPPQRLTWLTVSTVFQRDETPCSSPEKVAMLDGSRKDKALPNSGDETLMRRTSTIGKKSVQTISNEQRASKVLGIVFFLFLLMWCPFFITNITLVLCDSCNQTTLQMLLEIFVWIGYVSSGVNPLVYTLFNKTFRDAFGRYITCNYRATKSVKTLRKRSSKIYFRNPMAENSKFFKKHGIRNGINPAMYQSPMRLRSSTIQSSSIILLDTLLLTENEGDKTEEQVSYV

SMILES: COc1cc2nccc(Oc3ccc(NC(=O)C4(C(=O)Nc5ccc(F)cc5)CC4)cc3)c2cc1OC [CABOZANTINIB]
- AC50 [1]: > 30 µM

- AC50 [2]: > 30 µM
- AC50 [3]: > 10 µM
- AC50 [4]: > 30 µM
- AC50 [5]: > 30 µM
SMILES: CC(C(=O)O)c1ccc2c(c1)[nH]c1ccc(Cl)cc12 (stereo unspecified) [CARPROFEN]

- AC50 [6]: 0.976 µM
SMILES: C=C[C@H]1C[N@@]2CC[C@H]1C[C@@H]2[C@@H](O)c1ccnc2ccc(OC)cc12 [QUINIDINE]
